Test results taken from ChEMBL document CHEMBL4480444, “Structural requirement of tunicamycin V for MraY inhibition” (Bioorg Med Chem, 2019).

target: T1, Phospho-N-acetylmuramoyl-pentapeptide-transferase (Staphylococcus aureus, UniProt P0C1R8); assay: Inhibition of Staphylococcus aureus MraY assessed as reduction in dansylated lipid I formation using UDP-MurNAc-dansylpentapeptide incubated for 3 hrs by fluorescence assay
T1 sequence (P0C1R8 whole entry): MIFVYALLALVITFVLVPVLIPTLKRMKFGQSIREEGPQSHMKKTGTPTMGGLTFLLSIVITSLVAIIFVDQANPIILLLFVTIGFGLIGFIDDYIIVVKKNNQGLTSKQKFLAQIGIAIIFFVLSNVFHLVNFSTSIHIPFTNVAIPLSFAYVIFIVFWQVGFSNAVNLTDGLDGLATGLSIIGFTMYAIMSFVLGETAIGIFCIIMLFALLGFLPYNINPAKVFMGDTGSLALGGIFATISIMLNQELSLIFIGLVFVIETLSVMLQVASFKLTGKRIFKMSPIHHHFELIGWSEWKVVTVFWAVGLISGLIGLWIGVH

SMILES | IC50 [µM]
CC(=O)N[C@H]1[C@@H](O[C@@H]2O[C@H](C[C@@H](O)[C@H]3O[C@@H](n4ccc(=O)[nH]c4=O)[C@H](O)[C@@H]3O)[C@H](O)[C@H](O)[C@H]2NC(=O)/C=C/CCCCCCCCCC(C)C)O[C@H](CO)[C@@H](O)[C@@H]1O (stereo in doubt; form 1) | 0.25
CC(=O)N[C@H]1[C@@H](O[C@@H]2O[C@H](C[C@@H](O)[C@H]3O[C@@H](n4ccc(=O)[nH]c4=O)[C@H](O)[C@@H]3O)[C@H](O)[C@H](O)[C@H]2NC(=O)/C=C/CCCCCCCCCC(C)C)O[C@H](CO)[C@@H](O)[C@@H]1O (stereo in doubt; form 2) | 0.35

Now from value to compound:

IC50 [µM] | SMILES
36 | CC(C)CCCCCCCCC/C=C/C(=O)N[C@H]1C(O)O[C@H](C[C@@H](O)[C@H]2O[C@@H](n3ccc(=O)[nH]c3=O)[C@H](O)[C@@H]2O)[C@H](O)[C@@H]1O (stereo not given in full)
36 | CC(=O)N[C@H]1[C@H](O[C@H]2O[C@H](CO)[C@@H](O)[C@H](O)[C@H]2NC(C)=O)O[C@H](C[C@@H](O)[C@H]2O[C@@H](n3ccc(=O)[nH]c3=O)[C@H](O)[C@@H]2O)[C@H](O)[C@@H]1O
> 100 | CC(=O)N[C@H]1[C@@H](O[C@@H]2O[C@H](CO)[C@H](O)[C@H](O)[C@H]2NC(=O)/C=C/CCCCCCCCCC(C)C)O[C@H](CO)[C@@H](O)[C@@H]1O
